Positions count from the first letter of the chain named.
How the values were obtained:
OsDRP1E (MBP-OsDRP1E) [1] = target: T1, OsDRP1E (MBP-OsDRP1E) (Oryza sativa, UniProt Q650Z3, E409V); assay: colorimetric phosphate release GTPase assay; format: biochemical; conditions: MBP fusion; time course and 2, 5, 10 ug protein; lower activity than wild type
T1 construct: gene Os09g0572900; tag kept; native protein 70 kDa
T1 sequence (Q650Z3 1-626 E409V): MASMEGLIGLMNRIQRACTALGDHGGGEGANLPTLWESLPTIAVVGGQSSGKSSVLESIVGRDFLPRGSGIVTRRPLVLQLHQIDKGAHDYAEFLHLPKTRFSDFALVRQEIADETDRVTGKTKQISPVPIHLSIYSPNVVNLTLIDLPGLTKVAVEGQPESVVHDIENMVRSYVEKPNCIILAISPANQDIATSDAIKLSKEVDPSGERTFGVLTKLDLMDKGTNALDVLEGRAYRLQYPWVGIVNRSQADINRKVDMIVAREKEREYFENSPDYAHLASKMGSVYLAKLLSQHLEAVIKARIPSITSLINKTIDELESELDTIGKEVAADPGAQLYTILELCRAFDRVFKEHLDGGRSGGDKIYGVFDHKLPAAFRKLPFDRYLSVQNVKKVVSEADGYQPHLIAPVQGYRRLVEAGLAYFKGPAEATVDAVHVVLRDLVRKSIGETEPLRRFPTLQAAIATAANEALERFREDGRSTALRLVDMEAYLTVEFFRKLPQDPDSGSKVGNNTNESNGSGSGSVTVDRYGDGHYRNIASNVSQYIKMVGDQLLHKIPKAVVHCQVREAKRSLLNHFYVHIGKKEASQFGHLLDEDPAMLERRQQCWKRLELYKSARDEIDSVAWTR

OsDRP1E (MBP-OsDRP1E) [2] = target: T2, OsDRP1E (MBP-OsDRP1E) (Oryza sativa, UniProt Q650Z3); assay: colorimetric phosphate release GTPase assay; format: biochemical; conditions: MBP fusion; time course and 2, 5, 10 ug protein
T2 construct: gene Os09g0572900; tag kept; native protein 70 kDa
T2 sequence (Q650Z3 1-626): T1 sequence (Q650Z3 1-626 E409V) with V409E

## Nc1nc2c(ncn2[C@@H]2O[C@H](COP(=O)(O)OP(=O)(O)OP(=O)(O)O)[C@@H](O)[C@H]2O)c(=O)[nH]1 [GTP]
OsDRP1E (MBP-OsDRP1E) [1]
  colorimetric phosphate release GTPase assay: both MBP-OsDRP1E and MBP-E409V displayed catalytic activity towards the substrate GTP
OsDRP1E (MBP-OsDRP1E) [2]
  colorimetric phosphate release GTPase assay: both MBP-OsDRP1E and MBP-E409V displayed catalytic activity towards the substrate GTP

From paper PMC5266325, “The Rice Dynamin-Related Protein OsDRP1E Negatively Regulates Programmed Cell Death by Controlling the Release of Cytochrome c from Mitochondria” (PLoS Pathogens, 2017)
